Experimental data as given in patent publication US20040152648A1, “Pyruvate-kinase as a novel target molecule” (priority 2001, published 2004).
Where a SMILES comes first, the peptide text is derived from it. [ ]: non-standard residue; d: D form. Nle = CCCC[C@H](N)C(=O)O

Experiments:
Format in all cases: cell-based
[1] = test system: nuclear PK-M2 processing in Cos-7 cells; assay: protease inhibitor pre-treatment, electrophoretic mobility of nuclear PK-M2; conditions: Cos-7 cells pre-treated with protease inhibitor
[2] = test system: endogenous PK-M2 in Cos-7 cells; assay: subcellular localisation of endogenous PK-M2, cytosolic/nuclear fractions, Western-blot; conditions: 50 μM TT-232 or 100 μM hydrogen-peroxide, FIG. 8
Protocol: Subcellular localisation of endogenous PK-M2 upon peroxide or UV stimulation. Cos-7 cells were untreated, treated with 50 μM TT-232 (A), 100 μM hydrogen-peroxide (B), or 120 mJ/cm^2 UV (C) and incubated for different times as indicated. Cells were separated into cytosolic (c) or nuclear (n) fractions loaded in triplicate and blotted with PK-M2 (uppest panels), Erk-2 (middle panels) or Histone H1 (lowest panels).
In order investigate further Cos-7 cells were treated, separated into cytosolic and nuclear fractions by NP-40 lysis and analysed with polyclonal PKM2 specific antibody (Weernink et al., 1988) for endogenous PK-M2 by Western-blots. To rule out cross contamination, samples were loaded in triplicate and blotted with PK-M2, Erk-2 or Histone H1 antibodies.

[3] = biological target: T1, pEGFP-PK-M2 (pyruvate-kinase fused to GFP) in Cos-7 cells (Homo sapiens, UniProt P14618); assay: nuclear translocation of GFP-fused pyruvate-kinase in transiently transfected Cos-7 cells; conditions: pEGFP-PK-M2, 1 mM hydrogen peroxide for 4 hours, FIG. 4
T1 construct: producing wild type pyruvate-kinase N-terminally fused to GFP; expressed in transfected cells; host or cells: Cos-7
T1 sequence (P14618 whole entry, the tested form may be a part): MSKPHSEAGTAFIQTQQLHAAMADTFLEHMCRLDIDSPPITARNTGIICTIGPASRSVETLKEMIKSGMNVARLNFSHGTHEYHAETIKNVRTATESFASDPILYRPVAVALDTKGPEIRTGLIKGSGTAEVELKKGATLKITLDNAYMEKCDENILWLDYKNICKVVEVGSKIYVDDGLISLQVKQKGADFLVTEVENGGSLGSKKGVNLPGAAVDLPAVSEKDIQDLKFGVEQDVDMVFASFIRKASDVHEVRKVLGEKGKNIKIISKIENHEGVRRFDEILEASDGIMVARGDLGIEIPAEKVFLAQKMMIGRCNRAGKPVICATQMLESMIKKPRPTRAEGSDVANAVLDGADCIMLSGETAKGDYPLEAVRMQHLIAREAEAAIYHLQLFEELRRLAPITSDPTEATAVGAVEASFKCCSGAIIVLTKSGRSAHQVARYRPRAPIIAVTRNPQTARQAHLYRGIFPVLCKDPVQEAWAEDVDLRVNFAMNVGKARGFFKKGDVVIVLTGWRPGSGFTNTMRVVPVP
Description: Nuclear translocation of the pyruvate-kinase upon different apoptotic stimuli. Cos-7 cells were transiently transfected with pEGFP-PK-M2 eukaryotic expression plasmid (producing wild type pyruvate-kinase N-terminally fused to GFP)
Nuclear translocation of the pyruvate-kinase deletion mutants upon apoptotic stimuli. […] (Ex: 485 nm=GFP, Ex: 390=propidium-iodide)
Cells were fixed with 1% glutaraldehyde and the localisation of GFP was detected and analysed with fluorescent microscope and InoVision confocal imaging software. Nuclei were stained with propidium-iodine (FIG. 5).

SMILES	reversal of increased electrophoretic mobility of nuclear enzyme [1]	translocation of endogenous PK-M2 into the nucleus [2]	nuclear translocation of GFP-fused pyruvate-kinase [3]
NCCc1ccc(S(=O)(=O)F)cc1 [AEBSF]	not able to revert this effect	–	–
CCCC[C@@H](C=O)NC(=O)[C@H](CC(C)C)NC(=O)[C@H](CC(C)C)NC(C)=O [ALLN] (Ac-Leu-Leu-[Nle]-aldehyde)	not able to revert this effect	–	–
Cc1ccc(S(=O)(=O)N[C@@H](Cc2ccccc2)C(=O)CCl)cc1 [TPCK]	not able to revert this effect	–	–
OO [hydrogen peroxide]	–	induced the translocation of the endogenous PK-M2 into the nucleus	nuclear translocation of the pyruvate-kinase occurs
